# Source: patent US4327097A, “Novel penicillins” (Toyama Chemical Co., Ltd., priority 1974, dated 1982)
# Counter-ions that a name gives are not always drawn.
# Legend:
# Type in all cases: cell-based
# [1] = tested on: Pseudomonas aeruginosa; assay: MIC against clinical isolates; settings: unit assumed
# [2] = tested on: Klebsiella pneumoniae; assay: MIC, plate method, standard strains; settings: unit assumed
# Experimental: (§1) The minimum inhibitory concentration (MIC) was determined by the plate method disclosed in "Chemotherapy" (Japan), Vol. 16, (1968), pages 98-99. The culture medium used was a Heart infusion agar (pH 7.4). The number of the cells per plate used in the inoculum was 10^4 (10^6 cells/ml).
# [3] = tested on: Proteus vulgaris 3027; assay: MIC, plate method, standard strains; settings: unit assumed
# Experimental: as §1
# [4] = tested on: Escherichia coli NIHJ; assay: MIC, plate method, standard strains; settings: unit assumed; for MIC Esche--richin coil NIHJ: Table 3, standard strain
# Experimental: as §1
# [5] = tested on: Staphylococcus aureus 209p; assay: MIC, plate method, standard strains; settings: Table 3, standard strain, Heart infusion agar pH 7.4; unit assumed
# Experimental: as §1
# [6] = tested on: Staphylococcus aureus; assay: MIC against clinical isolates; settings: Table 5-1, clinical isolate; unit assumed
# [7] = tested on: Escherichia coli; assay: MIC against clinical isolates; settings: unit assumed
# [8] = tested on: Shigella flexneri; assay: MIC against clinical isolates; settings: Table 5-5, clinical isolate; unit assumed
# Experimental: as §1
# (§2) MIC was determined in the same manner as in the preceding paragraph (1).
# [9] = tested on: Shigella sonnei; assay: MIC against clinical isolates; settings: Table 5-5, clinical isolate; unit assumed
# Experimental: as §1, §2
# [10] = tested on: Klebsiella pneumoniae; assay: MIC against clinical isolates; settings: Table 6-4, clinical isolate; unit assumed
smiles,measurement,setting,value
"Cc1nnc(SCC2=C(C(=O)O)N3C(=O)C(NC(=O)C(NC(=O)N4CCN(C)C(=O)C4=O)c4ccccc4)C3SC2)s1 (single isomer, unassigned) [Compound No. 62]",MIC Pseudomonas aeruginosa GN4,"[1]; Table 6-3, clinical isolate",100 µg/mL
same,MIC Pseudomonas aeruginosa GN 82,"[1]; Table 6-3, clinical isolate",100 µg/mL
same,MIC Pseudomonas aeruginosa GN 376,"[1]; Table 6-3, clinical isolate",100 µg/mL
same,MIC Pseudomonas aeruginosa GN 2565,"[1]; Table 6-3, clinical isolate",100 µg/mL
CC(=O)N1CCN(C(=O)N[C@@H](C(=O)N[C@@H]2C(=O)N3[C@@H]2SC(C)(C)[C@@H]3C(=O)O)c2ccccc2)C(=O)C1 [drawing 188],MIC Klebsiella pneumoniae,"[2]; Table 3, standard strain",12.5 µg/mL
same,MIC Proteus vulgaris 3027,"[3]; Table 3, standard strain",3.13 µg/mL
"CN1CCN(C(=O)NC(C(=O)NC2C(=O)N3C2SC(C)(C)C3C(=O)O)c2ccc(O)cc2)C(=O)C1=O (single isomer, unassigned) [compound 48]",MIC Esche--richin coil NIHJ,[4],< 0.4 µg/mL
same,MIC Proteus vulgaris 3027,"[3]; Table 3, standard strain",< 0.4 µg/mL
same,MIC Staphylococcus aureus 209p,[5],< 0.4 µg/mL
"CC1(C)SC2C(NC(=O)C(NC(=O)N3CCN(C4CCCC4)C(=O)C3)c3ccccc3)C(=O)N2C1C(=O)O (single isomer, unassigned) [Compound 32]",MIC Esche--richin coil NIHJ,[4],< 1.57 µg/mL
same,MIC Staphylococcus aureus 209p,[5],< 1.57 µg/mL
"CC(=O)N1CCN(C(=O)N[C@@H](C(=O)N[C@@H]2C(=O)N3[C@@H]2SC(C)(C)[C@@H]3C(=O)O)c2ccccc2)C(=O)C1 [Example 1, sodium salt of 6-[D(-)-α-(4-acetyl-2-oxo-1-piperazinocarbonylamino)phenylacetamido]penicillanic acid]",MIC Staphylococcus aureus F-1,[6],12.5 µg/mL
same,MIC Staphylococcus aureus F-2,[6],3.13 µg/mL
same,MIC Staphylococcus aureus F-4,[6],6.25 µg/mL
same,MIC Staphylococcus aureus MS 8588,[6],6.25 µg/mL
same,MIC Staphylococcus aureus MS 8596,[6],3.13 µg/mL
same,MIC Staphylococcus aureus MS 8684,[6],3.13 µg/mL
same,MIC Staphylococcus aureus MS 8713,[6],3.13 µg/mL
same,MIC Escherichia coli GN 3435,"[7]; Table 5-2, clinical isolate",6.25 µg/mL
same,MIC Escherichia coli GN 3452,"[7]; Table 5-2, clinical isolate",12.5 µg/mL
same,MIC Escherichia coli GN 3481,"[7]; Table 5-2, clinical isolate",12.5 µg/mL
same,MIC Escherichia coli K-1,"[7]; Table 5-2, clinical isolate",6.25 µg/mL
same,MIC Escherichia coli K-4,"[7]; Table 5-2, clinical isolate",12.5 µg/mL
same,MIC Shigella flexneri JS 11215,[8],100 µg/mL
same,MIC Shigella flexneri JS 11839,[8],3.13 µg/mL
same,MIC Shigella sonnei JS 11232,[9],> 200 µg/mL
same,MIC Shigella sonnei JS 11755,[9],12.5 µg/mL
"CC1(C)SC2C(NC(=O)C(NC(=O)N3CCN(c4ccccc4)C(=O)C3=O)c3ccccc3)C(=O)N2C1C(=O)O (single isomer, unassigned) [Compound 43]",MIC Esche--richin coil NIHJ,[4],< 1.57 µg/mL
same,MIC Proteus vulgaris 3027,"[3]; Table 3, standard strain",< 1.57 µg/mL
same,MIC Staphylococcus aureus 209p,[5],< 1.57 µg/mL
"Cc1nnc(SCC2=C(C(=O)O)N3C(=O)[C@@H](NC(=O)Cn4cnnn4)[C@H]3SC2)s1 [drawing 249, reference compound]",MIC Klebsiella pneumoniae,"[2]; Table 4, standard strain",1.57 µg/mL
same,MIC Proteus vulgaris 3027,"[3]; Table 4, standard strain",200 µg/mL
"CC1(C)S[C@@H]2[C@H](NC(=O)[C@H](N)c3ccccc3)C(=O)N2[C@H]1C(=O)O [drawing 185, reference compound]",MIC Esche--richin coil NIHJ,[4],< 1.57 µg/mL
same,MIC Staphylococcus aureus 209p,[5],< 1.57 µg/mL
CN1CCN(C(=O)N[C@@H](C(=O)N[C@@H]2C(=O)N3C(C(=O)[O-])=C(C[n+]4ccccc4)CS[C@H]23)c2ccccc2)C(=O)C1=O [Compound No. 68],MIC Escherichia coli NIHJ,"[4]; Table 4, standard strain",< 0.79 µg/mL
same,MIC Klebsiella pneumoniae,"[2]; Table 4, standard strain",< 0.79 µg/mL
same,MIC Pseudomonas aeruginosa GN4,"[1]; Table 6-3, clinical isolate",12.5 µg/mL
same,MIC Pseudomonas aeruginosa GN 1035,"[1]; Table 6-3, clinical isolate",50 µg/mL
same,MIC Pseudomonas aeruginosa GN 2565,"[1]; Table 6-3, clinical isolate",50 µg/mL
"COCOC(=O)C1N2C(=O)C(NC(=O)C(NC(=O)N3CCN(C)C(=O)C3=O)c3ccccc3)C2SC1(C)C (single isomer, unassigned) [compound 50]",MIC Esche--richin coil NIHJ,[4],< 0.79 µg/mL
same,MIC Proteus vulgaris 3027,"[3]; Table 3, standard strain",< 0.79 µg/mL
same,MIC Staphylococcus aureus 209p,[5],< 0.79 µg/mL
CN1CCN(C(=O)NC(C(=O)N[C@@H]2C(=O)N3[C@@H]2SC(C)(C)[C@@H]3C(=O)O)c2cccs2)C(=O)C1=O (stereo partly shown) [compound 58],MIC Esche--richin coil NIHJ,[4],< 1.57 µg/mL
same,MIC Staphylococcus aureus 209p,[5],< 1.57 µg/mL
"Cc1nnc(SCC2=C(C(=O)O)N3C(=O)[C@@H](NC(=O)Cn4cnnn4)[C@H]3SC2)s1 [Sodium Cephazolin, reference compound]",MIC Escherichia coli GN 3435,"[7]; Table 6-2, clinical isolate",1.56 µg/mL
same,MIC Escherichia coli GN 3452,"[7]; Table 6-2, clinical isolate",1.56 µg/mL
same,MIC Escherichia coli GN 3481,"[7]; Table 6-2, clinical isolate",1.56 µg/mL
same,MIC Escherichia coli K-1,"[7]; Table 6-2, clinical isolate",1.56 µg/mL
same,MIC Escherichia coli K-2,"[7]; Table 6-2, clinical isolate",1.56 µg/mL
same,MIC Escherichia coli K-4,"[7]; Table 6-2, clinical isolate",3.13 µg/mL
same,MIC Pseudomonas aeruginosa GN4,"[1]; Table 6-3, clinical isolate",> 200 µg/mL
same,MIC Pseudomonas aeruginosa S-4,"[1]; Table 6-4, clinical isolate",> 200 µg/mL
same,MIC Klebsiella pneumoniae GN 917,[10],1.56 µg/mL
same,MIC Klebsiella pneumoniae GN 4081,[10],3.13 µg/mL
same,MIC Klebsiella pneumoniae GN 4117,[10],3.13 µg/mL
"CC(=O)OCCN1CCN(C(=O)NC(C(=O)NC2C(=O)N3C2SC(C)(C)C3C(=O)O)c2ccccc2)C(=O)C1=O (single isomer, unassigned) [Compound 41]",MIC Esche--richin coil NIHJ,[4],< 1.57 µg/mL
same,MIC Proteus vulgaris 3027,"[3]; Table 3, standard strain",< 1.57 µg/mL
same,MIC Staphylococcus aureus 209p,[5],< 1.57 µg/mL
"CC(=O)OCC1=C(C(=O)O)N2C(=O)C(NC(=O)C(NC(=O)N3CCN(C)C(=O)C3=O)c3ccccc3)C2SC1 (single isomer, unassigned) [Compound No. 60]",MIC Pseudomonas aeruginosa GN4,"[1]; Table 6-3, clinical isolate",50 µg/mL
same,MIC Pseudomonas aeruginosa GN 82,"[1]; Table 6-3, clinical isolate",50 µg/mL
same,MIC Pseudomonas aeruginosa GN 376,"[1]; Table 6-3, clinical isolate",50 µg/mL
same,MIC Pseudomonas aeruginosa GN 2987,"[1]; Table 6-3, clinical isolate",50 µg/mL
"CC1(C)S[C@@H]2[C@H](NC(=O)C(c3ccccc3)S(=O)(=O)O)C(=O)N2[C@H]1C(=O)O (stereo partly shown) [drawing 187, reference compound]",MIC Esche--richin coil NIHJ,[4],1.57 µg/mL
CCCCN1CCN(C(=O)N[C@@H](C(=O)N[C@@H]2C(=O)N3[C@@H]2SC(C)(C)[C@@H]3C(=O)O)c2ccccc2)C(=O)C1 [Compound 14],MIC Esche--richin coil NIHJ,[4],< 1.57 µg/mL
same,MIC Klebsiella pneumoniae,"[2]; Table 3, standard strain",3.13 µg/mL
same,MIC Proteus vulgaris 3027,"[3]; Table 3, standard strain",< 1.57 µg/mL
same,MIC Staphylococcus aureus 209p,[5],< 1.57 µg/mL
same,MIC Staphylococcus aureus F-2,[6],1.57 µg/mL
same,MIC Staphylococcus aureus F-4,[6],6.25 µg/mL
same,MIC Staphylococcus aureus MS 8588,[6],3.13 µg/mL
same,MIC Staphylococcus aureus MS 8596,[6],3.13 µg/mL
same,MIC Staphylococcus aureus MS 8684,[6],3.13 µg/mL
same,MIC Staphylococcus aureus MS 8713,[6],3.13 µg/mL
same,MIC Escherichia coli GN 3435,"[7]; Table 5-2, clinical isolate",6.25 µg/mL
same,MIC Escherichia coli GN 3452,"[7]; Table 5-2, clinical isolate",6.25 µg/mL
same,MIC Escherichia coli GN 3481,"[7]; Table 5-2, clinical isolate",6.25 µg/mL
same,MIC Escherichia coli K-1,"[7]; Table 5-2, clinical isolate",3.13 µg/mL
same,MIC Escherichia coli K-4,"[7]; Table 5-2, clinical isolate",6.25 µg/mL
same,MIC Shigella flexneri JS 11215,[8],25 µg/mL
same,MIC Shigella flexneri JS 11839,[8],3.13 µg/mL
same,MIC Shigella sonnei JS 11232,[9],25 µg/mL
same,MIC Shigella sonnei JS 11755,[9],6.25 µg/mL
"CN1CCN(C(=O)NC(C(=O)NC2C(=O)N3C2SC(C)(C)C3C(=O)OCCN2CCCCC2)c2ccccc2)C(=O)C1=O (single isomer, unassigned) [compound 53]",MIC Esche--richin coil NIHJ,[4],< 0.4 µg/mL
"CN1CCN(C(=O)N[C@@H](C(=O)N[C@@H]2C(=O)N3[C@@H]2SC(C)(C)[C@@H]3C(=O)OC2OC(=O)c3ccccc32)c2ccccc2)C(=O)C1=O (single isomer, unassigned) [compound 49]",MIC Staphylococcus aureus 209p,[5],< 0.4 µg/mL
"CCCCCCCCN1CCN(C(=O)NC(C(=O)NC2C(=O)N3C2SC(C)(C)C3C(=O)OCOC)c2ccccc2)C(=O)C1=O (single isomer, unassigned) [compound 51]",MIC Esche--richin coil NIHJ,[4],< 0.4 µg/mL
same,MIC Klebsiella pneumoniae,"[2]; Table 3, standard strain",< 0.4 µg/mL
same,MIC Proteus vulgaris 3027,"[3]; Table 3, standard strain",< 0.4 µg/mL
same,MIC Staphylococcus aureus 209p,[5],< 0.4 µg/mL
"C=CCN1CCN(C(=O)NC(C(=O)NC2C(=O)N3C2SC(C)(C)C3C(=O)O)c2ccccc2)C(=O)C1=O (single isomer, unassigned) [Compound 42]",MIC Esche--richin coil NIHJ,[4],< 1.57 µg/mL
same,MIC Proteus vulgaris 3027,"[3]; Table 3, standard strain",< 1.57 µg/mL
CCN1CCN(C(=O)NC(C(=O)NC2C(=O)N3C(C(=O)O)=C(COC(C)=O)CSC23)c2ccccc2)C(=O)C1=O (stereo not shown) [Compound No. 61],MIC Pseudomonas aeruginosa GN,"[1]; Table 6-3, clinical isolate, strain number not given",25 µg/mL
same,MIC Pseudomonas aeruginosa GN4,"[1]; Table 6-3, clinical isolate",12.5 µg/mL
"CC(=O)OCC1=C(C(=O)O)N2C(=O)[C@@H](NC(=O)[C@H](N)c3ccccc3)[C@H]2SC1 [drawing 247, reference compound]",MIC Klebsiella pneumoniae,"[2]; Table 4, standard strain",< 1.57 µg/mL
same,MIC Proteus vulgaris 3027,"[3]; Table 4, standard strain",100 µg/mL
